Laboratory results published in patent US4060527A, “Pyrido[2,3-c]-acridine-1-hydroxy-2-carboxylic acid derivatives” (Fuji Chemical Industries, Ltd., priority 1975, dated 1977).
In brackets after ≈: the same amount, converted by molar mass.

Legend:
[1] = test system: Escherichia coli; assay: Antibacterial activity (MIC) against Escherichia coli as Gram-negative bacterium; assay type: cell-based; conditions: Table 3, class symbols; for MIC: Escherichia coli, read-out: Antibacterial Activity (MIC) E. coli
Description: (§1) Some of the compounds of this invention were tested as to their antibacterial activity (MIC, mcg/ml) against Staph. aureus as Gram-positive bacterium and E. coli as Gram-negative bacterium. In the table, the antibacterial activity of 0.09 to 1.25 mcg/ml. is indicated as A1, and the antibacterial activity of more than 1.25 mcg/ml. and not more than 2.5 mcg/ml. is indicated as A2.

[2] = test system: Staphylococcus aureus; assay: Antibacterial activity (MIC) against Staphylococcus aureus as Gram-positive bacterium; assay type: cell-based; conditions: Table 3, class symbols; for MIC: Staphylococcus aureus, read-out: Antibacterial Activity (MIC) Staph. aureus
Description: as §1

Row | Compound | MIC [1] [µg/mL] | MIC [2] [µg/mL] | Antibacterial Activity (MIC) E. coli [1] | Antibacterial Activity (MIC) Staph. aureus [2]
1 | CN(C)c1c2ccccc2nc2c1ccc1ncc(C(=O)O)c(O)c12 [Compound F-869, Pyrido[2,3-c]-acridine-1-hydroxy-7-dimethylamino-2-carboxylic acid] | 0.09 to 1.25 (≈ 0.27 to 3.75 µM) | 0.09 to 1.25 (≈ 0.27 to 3.75 µM) | – | –
2 | O=C(O)c1cnc2c(Br)cc3cc4ccccc4nc3c2c1O [Compound F-840, Pyrido[2,3-c]-acridine-1-hydroxy-5-bromo-2-carboxylic acid] | 0.09 to 1.25 (≈ 0.244 to 3.39 µM) | – | – | –
3 | O=C(O)c1cnc2c(I)cc3cc4ccccc4nc3c2c1O [Compound F-844, Pyrido[2,3-c]-acridine-1-hydroxy-5-iodo-2-carboxylic acid] | 0.09 to 1.25 (≈ 0.216 to 3 µM) | 0.09 to 1.25 (≈ 0.216 to 3 µM) | – | –
4 | O=C(O)c1cnc2ccc3c(N(CO)CO)c4ccccc4nc3c2c1O [Compound F-914, Pyrido[2,3-c]-acridine-1-hydroxy-7-di-(hydroxymethyl)amino-2-carboxylic acid] | 0.09 to 1.25 (≈ 0.246 to 3.42 µM) | 0.09 to 1.25 (≈ 0.246 to 3.42 µM) | – | –
5 | O=C(O)c1cnc2ccc3cc4ccc(N(CO)CO)cc4nc3c2c1O [Compound F-916, Pyrido[2,3-c]-acridine-1-hydroxy-10-di-(hydroxymethyl)amino-2-carboxylic acid] | 0.09 to 1.25 (≈ 0.246 to 3.42 µM) | 0.09 to 1.25 (≈ 0.246 to 3.42 µM) | – | –
6 | CNc1c2ccccc2nc2c1ccc1ncc(C(=O)O)c(O)c12 [Compound F-853, Pyrido[2,3-c]-acridine-1-hydroxy-7-methylamino-2-carboxylic acid] | 0.09 to 1.25 (≈ 0.282 to 3.91 µM) | 0.09 to 1.25 (≈ 0.282 to 3.91 µM) | – | –
7 | O=C(O)c1cnc2c(CO)cc3cc4ccccc4nc3c2c1O [Compound F-893, Pyrido[2,3-c]-acridine-1-hydroxy-5-hydroxymethyl-2-carboxylic acid] | 0.09 to 1.25 (≈ 0.281 to 3.9 µM) | 1.25 to 2.5 (≈ 3.9 to 7.81 µM) | – | –
8 | O=C(O)c1cnc2ccc3c(-c4ccc(I)cc4)c4ccccc4nc3c2c1O [Compound F-789, Pyrido[2,3-c]-acridine-1-hydroxy-7-p-iodophenyl-2-carboxylic acid] | 0.09 to 1.25 (≈ 0.183 to 2.54 µM) | 0.09 to 1.25 (≈ 0.183 to 2.54 µM) | – | –
9 | O=C(O)c1cnc2ccc3c(Br)c4ccccc4nc3c2c1O [Compound F-841, Pyrido[2,3-c]-acridine-1-hydroxy-7-bromo-2-carboxylic acid] | 0.09 to 1.25 (≈ 0.244 to 3.39 µM) | – | – | –
10 | CSc1c2ccccc2nc2c1ccc1ncc(C(=O)O)c(O)c12 [Compound F-877, Pyrido[2,3-c]-acridine-1-hydroxy-7-methylmercapto-2-carboxylic acid] | 0.09 to 1.25 (≈ 0.268 to 3.72 µM) | 0.09 to 1.25 (≈ 0.268 to 3.72 µM) | – | –
11 | CC(=O)OCCNc1c2ccccc2nc2c1ccc1ncc(C(=O)O)c(O)c12 [Compound F-926, Pyrido[2,3-c]-acridine-1-hydrox-7-acetoxyethylamino-2-carboxylic acid] | – | – | A1 (antibacterial activity of 0.09 to 1.25 mcg/ml.) | A1 (antibacterial activity of 0.09 to 1.25 mcg/ml.)
12 | CC(=O)OCCNc1cc2cc3ccccc3nc2c2c(O)c(C(=O)O)cnc12 [Compound F-925, Pyrido[2,3-c] -acridine-1-hydroxy-5-acetoxyethylamino-2-carboxylic acid] | – | – | A1 (antibacterial activity of 0.09 to 1.25 mcg/ml.) | A1 (antibacterial activity of 0.09 to 1.25 mcg/ml.)
13 | NCc1cc2cc3ccccc3nc2c2c(O)c(C(=O)O)cnc12 [Compound F-901, Pyrido[2,3-c]-acridine-1-hydroxy-5-aminomethyl-2-carboxylic acid] | 1.25 to 2.5 (≈ 3.91 to 7.83 µM) | 1.25 to 2.5 (≈ 3.91 to 7.83 µM) | – | –
14 | O=C(O)c1cnc2c(N(CO)CO)cc3cc4ccccc4nc3c2c1O [Compound F-913, Pyrido[2,3-c]-acridine-1-hydroxy-5-di-(hydroxymethyl)amino-2-carboxylic acid] | 0.09 to 1.25 (≈ 0.246 to 3.42 µM) | 0.09 to 1.25 (≈ 0.246 to 3.42 µM) | – | –
15 | CCNc1cc2cc3ccccc3nc2c2c(O)c(C(=O)O)cnc12 [Compound F-856, Pyrido[2,3-c]-acridine-1-hydroxy-5-ethylamino-2-carboxylic acid] | 0.09 to 1.25 (≈ 0.27 to 3.75 µM) | 0.09 to 1.25 (≈ 0.27 to 3.75 µM) | – | –
16 | O=C(O)c1cnc2ccc3c(-c4ccccc4Br)c4ccccc4nc3c2c1O [Compound F-777, Pyrido[2,3-c]-acridine-1-hydroxy-7-o-bromophenyl-2-carboxylic acid] | 0.09 to 1.25 (≈ 0.202 to 2.81 µM) | 0.09 to 1.25 (≈ 0.202 to 2.81 µM) | – | –
17 | CC(=O)OCCNc1ccc2nc3c(ccc4ncc(C(=O)O)c(O)c43)cc2c1 [Compound F-927, Pyrido[2,3-c]-acridine-1-hydroxy-9-acetoxyethylamino-2-carboxylic acid] | – | – | A1 (antibacterial activity of 0.09 to 1.25 mcg/ml.) | A1 (antibacterial activity of 0.09 to 1.25 mcg/ml.)
18 | CCNc1ccc2nc3c(ccc4ncc(C(=O)O)c(O)c43)cc2c1 [Compound F-858, Pyrido[2,3-c]-acridine-1-hydroxy-9-ethylamino-2-carboxylic acid] | 0.09 to 1.25 (≈ 0.27 to 3.75 µM) | 0.09 to 1.25 (≈ 0.27 to 3.75 µM) | – | –
19 | O=C(O)c1cnc2ccc3cc4ccc([N+](=O)[O-])cc4nc3c2c1O [Compound F-892, Pyrido[2,3-c]-acridine-1-hydroxy-10-nitro-2-carboxylic acid] | 0.09 to 1.25 (≈ 0.268 to 3.73 µM) | 0.09 to 1.25 (≈ 0.268 to 3.73 µM) | – | –
20 | O=C(O)c1ccc2nc3c(ccc4ncc(C(=O)O)c(O)c43)cc2c1 [Compound F-935, Pyrido[2,3-c]-1-hydroxy-2,9-dicarboxylic acid] | 1.25 to 2.5 (≈ 3.74 to 7.48 µM) | 1.25 to 2.5 (≈ 3.74 to 7.48 µM) | – | –
21 | Nc1c2ccccc2nc2c1ccc1ncc(C(=O)O)c(O)c12 [Compound F-849, Pyrido[2,3-c]-acridine-1-hydroxy-7-amino-2-carboxylic acid] | 1.25 to 2.5 (≈ 4.09 to 8.19 µM) | 1.25 to 2.5 (≈ 4.09 to 8.19 µM) | – | –
22 | C=CCc1c2ccccc2nc2c1ccc1ncc(C(=O)O)c(O)c12 [Compound F-694, Pyrido[2,3-c]-acridine-1-hydroxy-7-allyl-2-carboxylic acid] | 0.09 to 1.25 (≈ 0.272 to 3.78 µM) | 1.25 to 2.5 (≈ 3.78 to 7.57 µM) | – | –
23 | O=C(O)c1cnc2ccc3cc4cccc(O)c4nc3c2c1O [Compound F-932, Pyrido[2,3-c]-1,11-dihydroxy-2-carboxylic acid] | 0.09 to 1.25 (≈ 0.294 to 4.08 µM) | 0.09 to 1.25 (≈ 0.294 to 4.08 µM) | – | –
24 | O=C(O)c1cnc2ccc3cc4cc(N(CO)CO)ccc4nc3c2c1O [Compound F-915, Pyrido[2,3-c]-acridine-1-hydroxy-9-di-(hydroxymethyl)amino-2-carboxylic acid] | 0.09 to 1.25 (≈ 0.246 to 3.42 µM) | 0.09 to 1.25 (≈ 0.246 to 3.42 µM) | – | –
25 | O=C(O)c1cnc2ccc3c(O)c4ccccc4nc3c2c1O [Compound F-930, Pyrido[2,3-c]-1,7-dihydroxy-2-carboxylic acid] | 0.09 to 1.25 (≈ 0.294 to 4.08 µM) | 0.09 to 1.25 (≈ 0.294 to 4.08 µM) | – | –
26 | CS(=O)(=O)c1ccc2nc3c(ccc4ncc(C(=O)O)c(O)c43)cc2c1 [Compound F-890, Pyrido[2,3-c]-acridine-1-hydroxy-9-methylsulfonyl-2-carboxylic acid] | 0.09 to 1.25 (≈ 0.244 to 3.39 µM) | 0.09 to 1.25 (≈ 0.244 to 3.39 µM) | – | –
27 | C=Cc1c2ccccc2nc2c1ccc1ncc(C(=O)O)c(O)c12 [Compound F-690, Pyrido[2,3-c]-acridine-1-hydroxy-7-vinyl-2-carboxylic acid] | 1.25 to 2.5 (≈ 3.95 to 7.9 µM) | 1.25 to 2.5 (≈ 3.95 to 7.9 µM) | – | –
28 | O=C(O)c1cnc2ccc3c(I)c4ccccc4nc3c2c1O [Compound F-845, Pyrido[2,3-c]-acridine-1-hydroxy-7-iodo-2-carboxylic acid] | 0.09 to 1.25 (≈ 0.216 to 3 µM) | 0.09 to 1.25 (≈ 0.216 to 3 µM) | – | –
29 | O=C(O)c1cnc2ccc3cc4cc(CO)ccc4nc3c2c1O [Compound F-895, Pyrido[2,3-c]-acridine-1-hydroxy-9-hydroxymethyl-2-carboxylic acid] | 0.09 to 1.25 (≈ 0.281 to 3.9 µM) | 1.25 to 2.5 (≈ 3.9 to 7.81 µM) | – | –
30 | O=C(O)c1cnc2c(O)cc3cc4ccccc4nc3c2c1O [Compound F-929, Pyrido[2,3-c]-1,5-dihydroxy-2-carboxylic acid] | 0.09 to 1.25 (≈ 0.294 to 4.08 µM) | 0.09 to 1.25 (≈ 0.294 to 4.08 µM) | – | –
